# Reference: ChEMBL document CHEMBL5465560, “Selectivity Literature for EUbOPEN Chemogenomic Library” (2024)
# Legend:
# [1] = biological target: Tyrosine-protein kinase JAK1 (Homo sapiens, UniProt P23458); experiment: Selectivity interaction (KinomeScan (DiscoverX)) EUB0000045b JAK1; conditions: at 10 µM
# [2] = biological target: Protein kinase C eta type (Homo sapiens) (UniProt P24723); experiment: Selectivity interaction (KinomeScan (DiscoverX)) EUB0000045b PRKCH
# [3] = biological target: T1, Histone-lysine N-methyltransferase NSD3 (Homo sapiens) (UniProt Q9BZ95); experiment: Selectivity interaction (PWWP, WD40, and Tudor domain panel (DSLS measurements, literature)) EUB0000270b NSD3
# T1 sequence (whole entry): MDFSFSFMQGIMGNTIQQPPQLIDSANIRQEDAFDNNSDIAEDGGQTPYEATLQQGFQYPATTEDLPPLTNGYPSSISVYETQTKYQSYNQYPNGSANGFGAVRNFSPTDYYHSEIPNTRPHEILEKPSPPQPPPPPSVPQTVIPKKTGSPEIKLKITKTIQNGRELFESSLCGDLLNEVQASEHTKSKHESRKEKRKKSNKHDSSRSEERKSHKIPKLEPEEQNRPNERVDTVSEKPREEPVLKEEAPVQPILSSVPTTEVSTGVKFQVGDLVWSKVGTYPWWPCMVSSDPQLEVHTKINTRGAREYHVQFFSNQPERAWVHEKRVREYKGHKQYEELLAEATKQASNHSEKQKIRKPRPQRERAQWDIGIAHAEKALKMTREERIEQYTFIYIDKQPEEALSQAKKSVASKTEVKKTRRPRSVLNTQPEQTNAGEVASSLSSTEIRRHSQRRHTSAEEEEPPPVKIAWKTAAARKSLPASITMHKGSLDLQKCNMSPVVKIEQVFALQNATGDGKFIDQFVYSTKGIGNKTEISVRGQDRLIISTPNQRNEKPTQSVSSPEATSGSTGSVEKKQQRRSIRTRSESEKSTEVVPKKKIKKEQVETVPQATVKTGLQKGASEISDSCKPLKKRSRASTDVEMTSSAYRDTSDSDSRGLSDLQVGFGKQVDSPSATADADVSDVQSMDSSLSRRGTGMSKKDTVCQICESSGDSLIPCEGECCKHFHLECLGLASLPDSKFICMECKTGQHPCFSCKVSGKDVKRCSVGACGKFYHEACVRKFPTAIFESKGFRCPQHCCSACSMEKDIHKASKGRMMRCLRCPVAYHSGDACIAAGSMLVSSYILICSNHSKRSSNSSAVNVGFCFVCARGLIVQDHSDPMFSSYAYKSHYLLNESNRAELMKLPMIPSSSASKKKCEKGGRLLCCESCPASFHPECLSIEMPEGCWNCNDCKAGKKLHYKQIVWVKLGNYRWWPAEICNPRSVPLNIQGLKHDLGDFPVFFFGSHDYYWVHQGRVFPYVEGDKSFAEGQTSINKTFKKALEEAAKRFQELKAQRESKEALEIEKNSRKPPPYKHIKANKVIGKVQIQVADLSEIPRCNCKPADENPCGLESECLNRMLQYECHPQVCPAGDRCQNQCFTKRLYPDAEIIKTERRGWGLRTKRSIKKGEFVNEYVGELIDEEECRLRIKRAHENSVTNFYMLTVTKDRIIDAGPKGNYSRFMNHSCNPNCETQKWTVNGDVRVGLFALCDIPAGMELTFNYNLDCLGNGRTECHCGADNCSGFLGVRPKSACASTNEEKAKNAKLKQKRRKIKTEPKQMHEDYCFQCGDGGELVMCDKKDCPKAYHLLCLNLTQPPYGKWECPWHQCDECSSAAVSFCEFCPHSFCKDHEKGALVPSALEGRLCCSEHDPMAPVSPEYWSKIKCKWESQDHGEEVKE
# [4] = biological target: High affinity choline transporter 1 (Homo sapiens) (UniProt Q9GZV3); experiment: Selectivity interaction (Eurofins CEREP Diversity Profile (receptors and ion channels)) EUB0000279b SLC5A7; conditions: at 10 µM
# [5] = biological target: Dual specificity mitogen-activated protein kinase kinase 1 (Homo sapiens, UniProt Q02750)
# [6] = biological target: Protein kinase C eta type (Homo sapiens) (UniProt P24723); experiment: Selectivity interaction (ProQinase) EUB0000171b PRKCH
# [7] = biological target: Mitogen-activated protein kinase 7 (Homo sapiens) (UniProt Q13164); experiment: Selectivity interaction (KinomeScan (DiscoverX)) EUB0001619a MAPK7; conditions: at 1 µM
# [8] = biological target: T2, Mitogen-activated protein kinase kinase kinase 2 (Homo sapiens) (UniProt Q9Y2U5); experiment: Selectivity interaction (KinomeScan (DiscoverX)) EUB0000655a MAP3K2; conditions: at 10 µM
# T2 sequence (whole entry): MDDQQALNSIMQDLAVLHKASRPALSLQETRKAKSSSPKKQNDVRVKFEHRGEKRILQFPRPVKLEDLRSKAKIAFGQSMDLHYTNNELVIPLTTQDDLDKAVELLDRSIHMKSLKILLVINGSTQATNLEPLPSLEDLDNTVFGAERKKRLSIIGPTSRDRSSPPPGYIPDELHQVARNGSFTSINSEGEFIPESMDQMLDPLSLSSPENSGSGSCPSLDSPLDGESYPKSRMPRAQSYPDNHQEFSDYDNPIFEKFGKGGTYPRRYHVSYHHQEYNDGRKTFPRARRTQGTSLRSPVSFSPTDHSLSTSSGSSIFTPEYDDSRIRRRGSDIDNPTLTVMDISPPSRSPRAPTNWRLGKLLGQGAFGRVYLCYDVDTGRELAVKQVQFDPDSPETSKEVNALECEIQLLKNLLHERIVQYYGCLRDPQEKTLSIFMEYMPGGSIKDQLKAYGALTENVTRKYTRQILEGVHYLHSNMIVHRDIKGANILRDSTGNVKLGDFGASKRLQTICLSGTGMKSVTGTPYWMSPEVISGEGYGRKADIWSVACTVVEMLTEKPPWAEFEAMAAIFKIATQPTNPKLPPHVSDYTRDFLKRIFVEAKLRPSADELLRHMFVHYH
# [9] = biological target: T3, Activin receptor type-1B (Homo sapiens) (UniProt P36896); conditions: at 10 µM
# T3 sequence (whole entry): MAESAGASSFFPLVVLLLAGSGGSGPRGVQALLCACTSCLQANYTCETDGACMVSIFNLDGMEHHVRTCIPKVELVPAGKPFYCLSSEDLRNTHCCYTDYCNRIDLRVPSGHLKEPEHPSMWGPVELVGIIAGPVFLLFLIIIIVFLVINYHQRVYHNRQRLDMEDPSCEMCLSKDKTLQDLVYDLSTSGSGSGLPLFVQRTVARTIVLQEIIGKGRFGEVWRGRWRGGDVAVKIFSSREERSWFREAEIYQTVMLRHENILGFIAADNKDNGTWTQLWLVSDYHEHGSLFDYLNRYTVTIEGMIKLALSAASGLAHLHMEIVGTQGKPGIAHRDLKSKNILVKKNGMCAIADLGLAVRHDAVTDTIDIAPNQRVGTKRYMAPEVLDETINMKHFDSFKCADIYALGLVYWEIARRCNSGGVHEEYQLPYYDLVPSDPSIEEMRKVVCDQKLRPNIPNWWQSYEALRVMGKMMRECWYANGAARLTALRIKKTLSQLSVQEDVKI
# Sequence of Protein kinase C eta type (Homo sapiens) (P24723 whole entry, the tested form may be a part): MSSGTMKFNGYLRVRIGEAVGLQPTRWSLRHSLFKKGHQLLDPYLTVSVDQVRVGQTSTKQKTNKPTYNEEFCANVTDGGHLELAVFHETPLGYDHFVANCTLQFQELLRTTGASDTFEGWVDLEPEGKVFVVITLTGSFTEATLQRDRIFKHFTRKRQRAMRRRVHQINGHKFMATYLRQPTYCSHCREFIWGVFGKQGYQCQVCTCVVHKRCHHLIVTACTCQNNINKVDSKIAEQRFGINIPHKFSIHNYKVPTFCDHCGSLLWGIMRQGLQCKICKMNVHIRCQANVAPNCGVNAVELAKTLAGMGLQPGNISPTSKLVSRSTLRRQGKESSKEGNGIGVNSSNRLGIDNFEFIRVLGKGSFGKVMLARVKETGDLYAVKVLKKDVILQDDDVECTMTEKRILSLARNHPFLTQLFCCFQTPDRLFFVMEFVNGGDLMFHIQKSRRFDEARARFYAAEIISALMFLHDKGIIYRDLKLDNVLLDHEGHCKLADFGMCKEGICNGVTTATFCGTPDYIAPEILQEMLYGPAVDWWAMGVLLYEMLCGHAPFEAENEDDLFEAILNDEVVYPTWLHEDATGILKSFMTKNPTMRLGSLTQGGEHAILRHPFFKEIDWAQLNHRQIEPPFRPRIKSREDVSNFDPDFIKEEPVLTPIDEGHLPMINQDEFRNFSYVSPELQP
# Sequence of Tyrosine-protein kinase JAK1 (P23458 whole entry): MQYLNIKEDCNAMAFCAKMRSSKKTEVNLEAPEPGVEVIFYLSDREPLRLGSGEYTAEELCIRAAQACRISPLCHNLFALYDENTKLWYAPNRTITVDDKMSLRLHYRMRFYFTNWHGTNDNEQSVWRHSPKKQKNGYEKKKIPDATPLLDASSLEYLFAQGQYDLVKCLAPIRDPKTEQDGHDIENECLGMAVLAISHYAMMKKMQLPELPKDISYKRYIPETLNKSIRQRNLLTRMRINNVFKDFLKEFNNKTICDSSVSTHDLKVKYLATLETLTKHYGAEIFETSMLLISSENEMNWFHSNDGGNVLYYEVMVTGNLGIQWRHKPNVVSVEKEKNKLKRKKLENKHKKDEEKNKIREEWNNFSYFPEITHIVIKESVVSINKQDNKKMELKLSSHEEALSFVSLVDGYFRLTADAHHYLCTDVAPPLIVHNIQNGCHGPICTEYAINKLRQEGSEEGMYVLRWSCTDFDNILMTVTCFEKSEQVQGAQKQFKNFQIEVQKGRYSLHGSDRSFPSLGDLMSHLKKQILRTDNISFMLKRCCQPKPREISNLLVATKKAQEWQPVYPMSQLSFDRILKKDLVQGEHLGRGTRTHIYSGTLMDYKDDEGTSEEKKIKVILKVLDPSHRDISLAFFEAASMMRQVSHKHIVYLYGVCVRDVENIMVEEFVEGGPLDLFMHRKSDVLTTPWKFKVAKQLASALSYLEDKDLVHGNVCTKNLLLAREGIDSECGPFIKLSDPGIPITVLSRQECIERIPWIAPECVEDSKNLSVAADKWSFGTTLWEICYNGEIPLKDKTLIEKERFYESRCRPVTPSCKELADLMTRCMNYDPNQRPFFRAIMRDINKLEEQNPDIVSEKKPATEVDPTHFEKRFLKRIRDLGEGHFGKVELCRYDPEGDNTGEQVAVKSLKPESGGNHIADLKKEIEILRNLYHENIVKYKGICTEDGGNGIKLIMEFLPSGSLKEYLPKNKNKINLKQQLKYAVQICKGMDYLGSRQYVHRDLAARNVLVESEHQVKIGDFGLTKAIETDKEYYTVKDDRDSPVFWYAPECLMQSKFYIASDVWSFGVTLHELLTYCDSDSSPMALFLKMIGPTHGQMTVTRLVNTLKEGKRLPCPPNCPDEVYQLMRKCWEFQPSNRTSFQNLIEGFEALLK
# Sequence of Mitogen-activated protein kinase 7 (Homo sapiens) (Q13164 2-816 limits assumed): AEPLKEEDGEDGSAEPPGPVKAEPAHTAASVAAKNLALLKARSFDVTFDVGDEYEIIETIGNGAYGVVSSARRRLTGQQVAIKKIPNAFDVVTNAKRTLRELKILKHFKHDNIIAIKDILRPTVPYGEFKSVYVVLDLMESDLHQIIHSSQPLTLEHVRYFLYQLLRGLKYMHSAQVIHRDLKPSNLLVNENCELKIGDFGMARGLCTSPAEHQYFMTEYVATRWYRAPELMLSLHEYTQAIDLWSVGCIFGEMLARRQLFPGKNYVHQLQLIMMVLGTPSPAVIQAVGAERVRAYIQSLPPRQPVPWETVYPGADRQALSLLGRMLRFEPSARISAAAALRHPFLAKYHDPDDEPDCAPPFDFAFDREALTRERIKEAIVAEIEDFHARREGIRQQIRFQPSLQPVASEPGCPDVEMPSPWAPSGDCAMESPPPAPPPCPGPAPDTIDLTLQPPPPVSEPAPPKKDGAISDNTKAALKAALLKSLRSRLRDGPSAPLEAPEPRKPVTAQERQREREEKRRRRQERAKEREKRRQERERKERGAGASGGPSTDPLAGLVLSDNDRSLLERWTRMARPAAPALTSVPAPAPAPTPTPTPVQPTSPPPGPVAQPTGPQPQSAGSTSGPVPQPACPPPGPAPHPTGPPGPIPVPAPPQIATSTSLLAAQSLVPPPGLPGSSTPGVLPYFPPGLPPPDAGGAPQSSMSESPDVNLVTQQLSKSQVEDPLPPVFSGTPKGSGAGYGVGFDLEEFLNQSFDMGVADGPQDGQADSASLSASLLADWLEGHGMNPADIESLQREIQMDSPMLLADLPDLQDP
# Sequence of Dual specificity mitogen-activated protein kinase kinase 1 (Q02750 whole entry): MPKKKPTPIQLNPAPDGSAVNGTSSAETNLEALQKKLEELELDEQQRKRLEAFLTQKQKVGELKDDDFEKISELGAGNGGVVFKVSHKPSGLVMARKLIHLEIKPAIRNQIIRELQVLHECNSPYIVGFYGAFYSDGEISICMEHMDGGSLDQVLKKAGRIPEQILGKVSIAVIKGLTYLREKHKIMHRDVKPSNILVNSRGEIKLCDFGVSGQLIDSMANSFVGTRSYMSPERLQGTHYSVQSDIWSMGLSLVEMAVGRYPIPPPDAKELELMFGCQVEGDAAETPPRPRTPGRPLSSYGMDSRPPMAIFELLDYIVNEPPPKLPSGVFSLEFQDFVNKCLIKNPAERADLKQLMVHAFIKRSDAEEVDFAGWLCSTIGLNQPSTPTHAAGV
# Sequence of High affinity choline transporter 1 (Homo sapiens) (Q9GZV3 whole entry): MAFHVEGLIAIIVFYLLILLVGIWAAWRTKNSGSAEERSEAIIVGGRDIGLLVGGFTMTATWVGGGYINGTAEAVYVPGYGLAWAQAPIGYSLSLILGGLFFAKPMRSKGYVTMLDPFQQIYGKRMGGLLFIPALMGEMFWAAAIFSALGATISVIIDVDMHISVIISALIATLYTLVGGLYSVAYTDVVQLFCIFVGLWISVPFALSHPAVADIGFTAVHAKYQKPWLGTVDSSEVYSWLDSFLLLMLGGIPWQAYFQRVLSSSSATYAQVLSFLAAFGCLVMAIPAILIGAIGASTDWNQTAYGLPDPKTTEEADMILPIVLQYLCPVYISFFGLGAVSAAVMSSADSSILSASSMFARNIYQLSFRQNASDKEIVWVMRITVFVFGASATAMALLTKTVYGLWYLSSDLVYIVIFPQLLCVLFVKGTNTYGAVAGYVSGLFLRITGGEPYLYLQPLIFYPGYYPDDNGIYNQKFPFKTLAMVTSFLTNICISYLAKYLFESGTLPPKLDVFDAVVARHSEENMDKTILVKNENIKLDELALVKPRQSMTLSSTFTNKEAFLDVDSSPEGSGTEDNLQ
smiles,measurement,setting,value
C=CC(=O)Nc1cc(-n2c(=O)ccc3cnc4ccc(-c5ccc(NS(C)(=O)=O)cc5)cc4c32)ccc1C,% of control,[1],93%
same,% of control,[2]; at 1 µM,98%
same,% of control,[2]; at 10 µM,100%
Cc1cc(CN)cc(C)c1-c1ncn(C)c1-c1cncn1C,dTagg,[3],0.5 K
CC(=O)c1cc(-c2ccccc2OCC2CC2)c2ncccn12,% of control,[4],90%
CC(=O)Nc1cccc(-n2c(=O)n(C3CC3)c(=O)c3c(Nc4ccc(I)cc4F)n(C)c(=O)c(C)c32)c1,Kdapp,[5],62 nM
C=CC(=O)Nc1cccc(C(=O)Nc2ccc(Nc3cc(-c4[nH]c(SC)nc4C)ccn3)cc2)c1,% of control,[6]; at 1 µM,91%
same,% of control,[6]; at 5 µM,78%
N#Cc1cccc(-c2c[nH]c3ncnc(N4CCOCC4)c23)c1,% of control,[7],100%
CN(C)CCOc1ccc(-c2nc(-c3ccncc3)c(-c3ccc4c(c3)CC/C4=N\O)[nH]2)cc1,% of control,[8],69%
CCN(CC)CCCCNc1ncc2cc(-c3cc(OC)cc(OC)c3)c(NC(=O)NC(C)(C)C)nc2n1,% of control,[9],100%
